Experimental data taken from PMC6344527, “Toxicity and possible mechanisms of action of honokiol from Magnolia denudata seeds against four mosquito species” (Scientific Reports, 2019).
Values after ≈ are worked out from the molar mass of the structure shown.

Legend:
[1] = test system: whole-body homogenate from third-instar Aedes aegypti larvae (adenylate cyclase activity); test: determination of cyclic AMP levels (octopamine-sensitive adenylate cyclase activity); format: biochemical; details: 100 μM; compared with control group / octopamine
Description: The method of Perumalsamy et al.[42] was used to assess the in vitro octopamine-sensitive adenylate cyclase activity of the test compounds. In brief, whole bodies of 75 Ae. aegypti larvae (106.2 mg) were homogenized in 500 µL of 2 mM Tris-maleate buffer (pH 7.4) containing 0.8 mM ethylene glycol tetraacetic acid (EGTA). The adenylate cyclase activity was determined using the cAMP Biotrak Enzymeimmunoassay system according to the manufacturer’s protocol. The assay was conducted in a total volume of 100 µL containing 80 mM Tris-maleate buffer, 5 mM theophylline, 2 mM MgSO4, 0.5 mM adenosine triphosphate (ATP), 0.2 mM EGTA, 50 µL of whole-body homogenate (equivalent to 4.12 µg protein), and 1 µL of the test compounds in Tris-maleate buffer containing 0.2% ethanol. After incubation at 20 °C for 5 min, the reaction was initiated by addition of ATP. Incubation was performed at 30 °C for 3 min in a shaking water bath. The reaction was stopped by boiling for 2 min, and then, the assay tube was cooled and centrifuged at 8,000 × g for 10 min. Fifty microliters of the supernatant were assayed for cAMP levels.
Polystyrene microplates (1 strip of 8 wells) coated with a goat anti-mouse polyclonal antibody were used. Fifty microliters of a mouse monoclonal antibody solution were added to each well except for the blank wells (or the nonspecific binding wells). The wells covered with the adhesive strip were incubated at 25 °C for 1 h in a shaking incubator (480 rpm). After washing with 400 µL of wash buffer four times, 50 μL of the two neolignan samples for cAMP determination and cAMP standard were added to wells. Control, blank (nonspecific binding), and zero standard wells were supplemented with 50 μL of a diluent RD5-55 buffer. […] The optical densities at 450 and 540 nm were determined using the microplate reader described above. The readings at 540 nm were subtracted from the readings at 450 nm. The cAMP concentrations are expressed as nmol/µg protein. The results are expressed as the means ± SEs of triplicate samples from three independent experiments.

[2] = test system: midgut regions of third-instar Ae. aegypti larvae; test: histologic analysis by Carson's trichrome staining; format: in vivo, Aedes aegypti; details: honokiol 6.5 mg/L or magnolol 25 mg/L (LC50), 24 h
Description: At 24 h post-treatment, Ae. aegypti larvae untreated and treated with honokiol or magnolol were immediately fixed in Bouin’s fluid[75] at 4 °C for 24 h. Larvae were then dehydrated in an ethanol-tetrahydrofuran-xylene series and embedded in Paraplast X-tra (Sigma-Aldrich). The embedded preparations of the larvae were sectioned at a 5 μm thickness using a Microm HM 340E rotary microtome (Thermo Scientific, Walldorf, Germany). The sections were dried at 40 °C overnight, subsequently deparaffinized with CitriSolv (Fisher Scientific, Fair Lawn, NJ, USA), and rehydrated with a series of ethanol in phosphate-buffered saline (PBS) solutions[30]. The rehydrated sections were stained in Weigert’s iron hematoxylin for 30 s, followed by Carson’s trichrome staining procedure. This staining protocol stained the columnar and goblet cells of the midgut blue and red, respectively. These sections were then dehydrated, cleared in xylene, and mounted in EMS Permount (Electron Microscopy Sciences, Hatfield, PA, USA). Images were observed and captured using a DMIL LED microscope (Leica Microsystems, Wetzlar, Germany) equipped with a Leica MC 170 HD. Observations were taken of 15 larvae under the microscope.

[3] = target: acetylcholinesterase (AChE) from third-instar Ae. aegypti larvae (Aedes aegypti, UniProt A4GND7); test: acetylcholinesterase inhibition assay; format: biochemical; details: based on IC50 values
Sequence of acetylcholinesterase (AChE) from third-instar Ae. aegypti larvae (A4GND7 37-679): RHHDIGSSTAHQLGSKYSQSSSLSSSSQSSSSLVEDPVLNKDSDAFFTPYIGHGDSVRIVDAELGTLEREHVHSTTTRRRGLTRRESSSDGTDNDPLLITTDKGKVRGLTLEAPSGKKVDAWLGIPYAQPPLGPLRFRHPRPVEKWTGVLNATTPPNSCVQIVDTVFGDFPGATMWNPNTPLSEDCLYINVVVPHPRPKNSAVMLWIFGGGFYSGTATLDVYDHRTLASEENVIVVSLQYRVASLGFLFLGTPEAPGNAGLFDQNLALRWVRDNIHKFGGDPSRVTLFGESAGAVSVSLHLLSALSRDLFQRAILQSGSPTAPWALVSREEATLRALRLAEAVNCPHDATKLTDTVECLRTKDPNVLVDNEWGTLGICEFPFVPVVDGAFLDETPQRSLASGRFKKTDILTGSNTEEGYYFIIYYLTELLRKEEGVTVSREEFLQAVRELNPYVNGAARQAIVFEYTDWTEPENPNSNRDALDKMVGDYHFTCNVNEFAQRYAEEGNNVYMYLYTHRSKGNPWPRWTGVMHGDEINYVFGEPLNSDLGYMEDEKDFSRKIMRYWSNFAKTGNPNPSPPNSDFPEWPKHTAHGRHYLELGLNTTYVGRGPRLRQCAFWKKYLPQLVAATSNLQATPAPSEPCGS
Description: The in vitro AChE inhibitory activity of the test compounds was assessed according to the method of Perumalsamy et al.[42]. Third-instar Ae. aegypti larvae were used in all experiments. Whole bodies of 50 larvae were homogenized in 1 mL of ice-cold 0.1 M phosphate buffer (pH 8.0) using a glass tissue homogenizer. After filtering through cheesecloth, the homogenate was centrifuged at 1,000 × g at 4 °C for 5 min. The supernatant was used directly as the enzyme source for AChE. The protein levels were determined using the Bradford Protein Assay Kit (Bio-Rad Laboratories, Hercules, CA, USA) using BSA as the standard. The reaction mixture consisted of 50 µL of the crude enzyme preparation (4.3–4.8 µg protein equivalents), 150 µL of 0.1 M phosphate buffer, 20 µL of 3 mM DTNB in phosphate buffer (pH 7.0), and 1 µL of various concentrations of each test compound in ethanol. The reaction mixture was incubated at 30 °C for 5 min, and 20 µL of 32 mM ATChI was then added to the mixture. After incubation for 30 min, the reaction was terminated by adding 20 µL of 5 mM eserine salicylate. Absorbance was recorded at 412 nm using a VersaMax microplate reader (Molecular Devices, Sunnyvale, CA, USA). […] The results are expressed as the means ± standard errors (SEs) of triplicate samples from three independent experiments.
(§1) The concentration of the test compounds required to produce 50% AChE inhibitory activity (IC50) was determined using the SAS 9.13 program (Cary: SAS Institute; 2014). Concentration-mortality data were subjected to probit analysis using the SAS 9.13 program. […] Statistical analyses were performed using the SAS 9.13 program. Multiple linear regression and correlation analysis were performed using the SPSS 24 program (Armonk: IBM Corp.; 2016).

[4] = design: method as in PMID 20877235; details: cited from earlier work
[5] = test system: larvae of four mosquito species (Cx. pipiens pallens, Ae. aegypti, Ae. albopictus, and An. sinensis); test: contact mortality bioassay, range over four mosquito species; format: in vivo; details: 24 h
Description: A contact mortality bioassay[25] was used to evaluate the toxicity of all compounds against third-instar larvae of the four mosquito species. Each test compound in methanol was suspended in DW with Triton X-100 (20 µL/L). Groups of 20 mosquito larvae were separately placed into paper cups (270 mL) containing each compound solution (250 mL). […] Negative controls consisted of a methanol–Triton X-100 solution in DW.
Treated and control (methanol–Triton X-100 solution only) larvae were maintained under the same conditions as those used for colony maintenance without providing food. Larval mortalities were determined 24 h post-treatment. […] All treatments were performed three times using 20 larvae per replicate.
as §1

[6] = test system: third-instar larvae of insecticide-resistant Anopheles sinensis; test: contact mortality bioassay, 24 h exposure; format: in vivo; details: Table 5, larvae resistant to deltamethrin and temephos, 24 h exposure

| Compound | cAMP levels [1] | histology of midgut region (Carson's staining) [2] | AChE inhibitory activity (in words) [3] | toxicity in animal models [4] | LC50 [5] [µg/mL] | LC50 ([6]; Anopheles sinensis, read-out: LC50 (mg/L) (95% CI)) | LC90 (mg/L) (95% CI) [6] | Slope ± SE ([6]; probit slope) |
| --- | --- | --- | --- | --- | --- | --- | --- | --- |
| C=CCc1ccc(O)c(-c2cc(CC=C)ccc2O)c1 [Magnolol, magnolol] | significantly higher than that induced by the control group | indistinct midgut epithelial layers and PMs | strongly | – | – | – | – | – |
| C=CCc1ccc(O)c(-c2ccc(O)c(CC=C)c2)c1 [Honokiol, 2-(4-hydroxy-3-prop-2-enyl-phenyl)-4-prop-2-enyl-phenol] | significantly higher than that induced by the control group | indistinct damaged midgut epithelial layers | moderately | no toxicity or serious adverse effects | 6.13 to 7.37 (≈ 23 to 27.7 µM) | 7.37 (≈ 27.7 µM) | 31.45 (22.90–56.82) mg/L | 2.0 ± 0.35 |
